Test results from patent US10344019B2 (priority 2010, dated 2019).

Key:
Test in all cases: microbe, parasite or virus in culture
Assay type in all cases: cell-based
[1] = system: HCV 3a RLuc cells (NS5A chimeric genotype 1b Con1 replicon with consensus genotype 3a NS5A gene); details: Hepatitis C virus, read-out: 3a, Table 2; genotype 3a NS5A chimeric replicon
Protocol: (§1) Evaluation of cell-based anti-HCV activity: Antiviral potency (EC50) was determined using a Renilla luciferase (RLuc)-based HCV replicon reporter assay. To perform the assay for genotype 1 and 2a JFH-1, HCV 1b RLuc cells (harboring a dicistronic genotype 1b Con1 replicon that encodes a RLuc reporter), or HCV 1a RLuc cells (harboring a dicistronic genotype 1a H77 replicon that encodes a RLuc reporter), or HCV 2a JFH-1 Rluc cells (harboring a dicistronic genotype 2a JFH-1 replicon that encodes a RLuc reporter) were dispensed into 384-well plates. To perform the assay for genotype 2a (with M31 present) or 2b, HCV 2a Rluc or 2b Rluc cells (both with M31 present) harboring a dicistronic NS5A chimeric genotype 2a JFH-1 replicon that encodes a RLuc reporter and either genotype 2a J6 strain NS5A gene or genotype 2b MD2b-1 NS5A gene (based on Los Alamos HCV database isolates, both with M31 present) respectively, were dispensed into 384-well plates. To perform the assay for genotype 3 and 4, HCV 3a RLuc or 4a Rluc cells harboring a dicistronic NS5A chimeric genotype 1b Con1 replicon that encodes a RLuc reporter and either a consensus genotype 3a NS5A gene or genotype 4a NS5A gene (based on Los Alamos HCV database isolates) respectively, were dispensed into 384-well plates. Compounds were re-suspended in DMSO at a concentration of 10 mM and serially diluted in DMSO either manually or using an automated pipeting instrument. Serially diluted compounds were mixed with cell culture media and added to the seeded cells. […] 72 hours later, cells were lysed and Renilla luciferase activity quantified as recommended by the manufacturer (Promega-Madison, Wis.). Non-linear regression was performed to calculate EC50 values.

[2] = system: HCV 4a Rluc cells (NS5A chimeric genotype 1b Con1 replicon with genotype 4a NS5A gene); details: Hepatitis C virus, read-out: 4a
Protocol: as §1

[3] = system: HCV 1a RLuc cells (dicistronic genotype 1a H77 replicon, RLuc reporter); details: Hepatitis C virus, 72 h, Table 2; genotype 1a H77 replicon, 72 hours; read-out: 1a
Protocol: as §1

[4] = system: HCV 1b RLuc cells (dicistronic genotype 1b Con1 replicon, RLuc reporter); details: Hepatitis C virus, 72 h, read-out: 1b (nM)
Protocol: as §1

[5] = system: HCV 2a JFH-1 Rluc cells (dicistronic genotype 2a JFH-1 replicon, RLuc reporter); details: Hepatitis C virus, 72 h, Table 2; genotype 2a JFH-1 replicon, 72 hours; read-out: 2a JFH
Protocol: as §1

| SMILES | EC50 [1] [nM] | EC50 [2] [nM] | EC50 [3] [nM] | EC50 [4] [nM] | EC50 [5] [nM] |
| --- | --- | --- | --- | --- | --- |
| COC(=O)N[C@H](C(=O)N1CC2(C[C@H]1c1ncc(-c3ccc4cc(-c5ccc(-c6cnc([C@@H]7CCCN7C(=O)[C@H](NC(=O)OC)c7ccccc7)[nH]6)cc5)ccc4c3)[nH]1)OCCO2)C(C)C [Example 43] | 1 to 4.99 | 0.001 to 0.99 | 0.001 to 0.999 | 0.009 | 0.001 to 0.999 |
| COC(=O)N[C@H](C(=O)N1CC2(C[C@H]1c1ncc(-c3ccc4cc(-c5ccc(-c6cnc([C@@H]7CCCN7C(=O)[C@H](NC(=O)OC)c7ccccc7)[nH]6)cc5)ccc4c3)[nH]1)OCCO2)C1CCOCC1 [Example 44] | 1 to 4.99 | 0.001 to 0.99 | 0.001 to 0.999 | 0.032 | 0.001 to 0.999 |
| COC(=O)N[C@H](C(=O)N1CCC[C@H]1c1ncc(-c2ccc3cc(-c4ccc(-c5cnc([C@@H]6CC7(CN6C(=O)[C@H](NC(=O)OC)c6ccccc6)OCCO7)[nH]5)cc4)ccc3c2)[nH]1)C(C)C [Example 45] | 1 to 4.99 | 0.001 to 0.99 | 0.001 to 0.999 | 0.014 | 0.001 to 0.999 |
| COC(=O)N[C@H](C(=O)N1CC2(C[C@@H]1c1nc(-c3ccc4c(c3)C(F)(F)c3cc(-c5ccc6nc([C@@H]7CCCN7C(=O)[C@H](NC(=O)OC)c7ccccc7)[nH]c6c5)ccc3-4)c[nH]1)OCCO2)C(C)C [Example 46] | 1 to 4.99 | 0.001 to 0.99 | 0.001 to 0.999 | 0.007 | 0.001 to 0.999 |
| COC(=O)N[C@H](C(=O)N1CCC[C@H]1c1ncc(-c2ccc3cc(-c4ccc(-c5cnc([C@@H]6CC7(CN6C(=O)[C@H](NC(=O)OC)c6ccccc6)OCCO7)[nH]5)cc4)ccc3c2)[nH]1)C1CCOCC1 [Example 47] | 1 to 4.99 | 0.001 to 0.99 | 0.001 to 0.999 | 0.037 | 0.001 to 0.999 |
| COC(=O)N[C@H](C(=O)N1CCC[C@H]1c1ncc(-c2ccc3cc(-c4ccc(-c5cnc([C@@H]6[C@H]7CC[C@H](C7)N6C(=O)[C@H](NC(=O)OC)c6ccccc6)[nH]5)cc4)ccc3c2)[nH]1)C(C)C [Example 48] | 1 to 4.99 | 0.001 to 0.99 | 0.001 to 0.999 | 0.007 | 1 to 44 |
| COC(=O)N[C@H](C(=O)N1CCC[C@H]1c1ncc(-c2ccc3cc(-c4ccc(-c5cnc([C@@H]6[C@H]7CC[C@H](C7)N6C(=O)[C@H](NC(=O)OC)c6ccccc6)[nH]5)cc4)ccc3c2)[nH]1)C1CCOCC1 [Example 49] | 0.001 to 0.99 | 0.001 to 0.99 | 0.001 to 0.999 | 0.014 | 0.001 to 0.999 |
| COC(=O)N[C@H](C(=O)N1CC2(C[C@H]1c1ncc(-c3ccc(-c4ccc5cc(-c6cnc([C@@H]7CCCN7C(=O)[C@H](NC(=O)OC)c7ccccc7)[nH]6)ccc5c4)cc3)[nH]1)OCCO2)C1CCOCC1 [Example 50] | 0.001 to 0.99 | 0.001 to 0.99 | 0.001 to 0.999 | 0.031 | 0.001 to 0.999 |
| COC(=O)N[C@H](C(=O)N1CCC[C@H]1c1ncc(-c2ccc3cc(-c4ccc(-c5cnc([C@@H]6[C@@H]7CC[C@@H](C7)N6C(=O)[C@H](NC(=O)OC)c6ccccc6)[nH]5)cc4)ccc3c2)[nH]1)C(C)C [Example 51] | 1 to 4.99 | 0.001 to 0.99 | 1 to 44 | 0.012 | 1 to 44 |
| COC(=O)N[C@H](C(=O)N1CCC[C@H]1c1ncc(-c2ccc3cc(-c4ccc(-c5cnc([C@@H]6[C@@H]7CC[C@@H](C7)N6C(=O)[C@@H](NC(=O)OC)C(C)C)[nH]5)cc4)ccc3c2)[nH]1)C(C)C [Example 52] | 1 to 4.99 | 0.001 to 0.99 | 0.001 to 0.999 | 0.009 | 1 to 44 |
| COC(=O)N[C@H](C(=O)N1CCC[C@H]1c1ncc(-c2ccc3c(c2)C(F)(F)c2cc(-c4ccc5nc([C@@H]6[C@H]7CC[C@H](C7)N6C(=O)[C@H](NC(=O)OC)c6ccccc6)[nH]c5c4)ccc2-3)[nH]1)C1CCOCC1 [Example 56] | 0.001 to 0.99 | 0.001 to 0.99 | 0.001 to 0.999 | 0.01 | 0.001 to 0.999 |
| COC(=O)N[C@H](C(=O)N1[C@@H]2CC[C@@H](C2)[C@H]1c1nc2ccc(-c3ccc4c(c3)C(F)(F)c3cc(-c5cnc([C@@H]6CCCN6C(=O)[C@H](NC(=O)OC)c6ccccc6)[nH]5)ccc3-4)cc2[nH]1)C1CCOCC1 [Example 57] | 0.001 to 0.99 | 0.001 to 0.99 | 0.001 to 0.999 | 0.009 | 0.001 to 0.999 |
| COC(=O)N[C@H](C(=O)N1CCC[C@H]1c1ncc(-c2ccc3c(c2)C(F)(F)c2cc(-c4ccc5nc([C@@H]6CC7(CN6C(=O)[C@H](NC(=O)OC)c6ccccc6)OCCO7)[nH]c5c4)ccc2-3)[nH]1)C1CCOCC1 [Example 58] | 1 to 4.99 | 0.001 to 0.99 | 0.001 to 0.999 | 0.017 | 0.001 to 0.999 |
| COC(=O)N[C@H](C(=O)N1CC2(C[C@H]1c1nc3ccc(-c4ccc5c(c4)C(F)(F)c4cc(-c6cnc([C@@H]7CCCN7C(=O)[C@H](NC(=O)OC)c7ccccc7)[nH]6)ccc4-5)cc3[nH]1)OCCO2)C1CCOCC1 [Example 59] | 0.001 to 0.99 | 0.001 to 0.99 | 0.001 to 0.999 | 0.016 | 0.001 to 0.999 |
| COC(=O)N[C@H](C(=O)N1CCC[C@H]1c1ncc(-c2ccc(-c3ccc(-c4cnc([C@@H]5CCCN5C(=O)[C@H](NC(=O)OC)c5ccccc5)[nH]4)cc3)cc2)[nH]1)C(C)C [Example 60] | 0.001 to 0.99 | 0.001 to 0.99 | 1 to 44 | 0.02 | 0.001 to 0.999 |
| COC(=O)N[C@H](C(=O)N1CCC[C@H]1c1ncc(-c2ccc(-c3ccc(-c4cnc([C@@H]5[C@H]6CC[C@H](C6)N5C(=O)[C@@H](NC(=O)OC)C5CCOCC5)[nH]4)cc3)cc2)[nH]1)C(C)C [Example 61] | 1 to 4.99 | 0.001 to 0.99 | 0.001 to 0.999 | 0.087 | 0.001 to 0.999 |
| COC(=O)N[C@H](C(=O)N1CCC[C@H]1c1nc2ccc3cc(-c4ccc(-c5cnc([C@@H]6[C@H]7CC[C@H](C7)N6C(=O)[C@@H](NC(=O)OC)C6CCOCC6)[nH]5)cc4)ccc3c2[nH]1)C(C)C [Example 62] | 0.001 to 0.99 | 0.001 to 0.99 | 0.001 to 0.999 | 0.034 | 0.001 to 0.999 |
| COC(=O)N[C@H](C(=O)N1CCC[C@H]1c1nc2ccc3cc(-c4ccc5c(ccc6nc([C@@H]7[C@H]8CC[C@H](C8)N7C(=O)[C@@H](NC(=O)OC)[C@@H](C)OC)[nH]c65)c4)ccc3c2[nH]1)C(C)C [Example 64] | 0.001 to 0.99 | 0.001 to 0.99 | 0.001 to 0.999 | 0.018 | 0.001 to 0.999 |
| COC(=O)NC(C(=O)N1CCC[C@H]1c1ncc(-c2ccc(-c3ccc4c(ccc5nc([C@@H]6[C@H]7CC[C@H](C7)N6C(=O)[C@@H](NC(=O)OC)C6CCOCC6)[nH]c54)c3)cc2)[nH]1)C(C)C (some centres unmarked) [Example 67] | 1 to 4.99 | 0.001 to 0.99 | 0.001 to 0.999 | 0.044 | 0.001 to 0.999 |
| COC(=O)NC(C(=O)N1CCC[C@H]1c1ncc(-c2ccc(-c3ccc4c(ccc5nc([C@@H]6[C@H]7CC[C@H](C7)N6C(=O)[C@@H](NC(=O)OC)C(C)C)[nH]c54)c3)cc2)[nH]1)C1CCOCC1 (some centres unmarked) [Example 69] | 0.001 to 0.99 | 0.001 to 0.99 | 0.001 to 0.999 | 0.035 | 0.001 to 0.999 |
| COC(=O)NC(C(=O)N1CCC[C@H]1c1nc2ccc3cc(-c4ccc5cc(-c6cnc([C@@H]7[C@H]8CC[C@H](C8)N7C(=O)[C@H](NC(=O)OC)c7ccccc7)[nH]6)ccc5c4)ccc3c2[nH]1)[C@@H](C)OC (some centres unmarked) [Example 70] | 1 to 4.99 | 0.001 to 0.99 | 0.001 to 0.999 | 0.008 | 1 to 44 |
| COC(=O)N[C@H](C(=O)N1[C@@H]2CC[C@@H](C2)[C@H]1c1ncc(-c2ccc(-c3ccc4cc(-c5cnc([C@@H]6CCCN6C(=O)[C@H](NC(=O)OC)c6ccccc6)[nH]5)ccc4c3)cc2)[nH]1)C1CCOCC1 [Example 71] | 0.001 to 0.99 | 0.001 to 0.99 | 0.001 to 0.999 | 0.013 | 0.001 to 0.999 |
